Data from patent US6579903B2, “Klainetins and their derivatives, method for their preparation and use thereof” (Aventis Pharma Deutschland GmbH, priority 2000, dated 2003).

Legend:
[1] = Stability (characterization); type: physicochemical
[2] = target: KDR (Homo sapiens, UniProt P35968); assay: KDR kinase inhibition, phosphorylation of PLCγ1 peptide substrate; type: biochemical; conditions: purified enzyme, 5 μM ATP, room temperature 1 h
Protocol: (§1) The cytostatic activities were determined by using purified enzymes in 384-well microtiter plates (coated FlashPlates, NEN Life Science). The enzyme activities were determined by means of phosphorylation of specific peptide substrates. A klainetin dilution series prepared beforehand, with concentrations of 100, 50, 25, 12.5, 6.25, 3.125, 1.5625, 0.7813, 0.3906, 0.195, 0.094, 0.047 and 0 μM, were pipetted into the wells in the appropriate order. The reaction mixture (radiolabeled ATP, buffer solution pH 7.4 and enzyme solutions) was then added followed by incubation at room temperature for 1 h.
Description of KDR reaction mixture:
Kinase buffer: 50 mM MOPS, pH7.4, 10 mM MgCl2, 2 mM DTT, 2.5 mM EGTA, 10 mM β-glycerol phosphate, 1 mM orthovanadate, and 1 mM sodium fluoride
ATP solution: 25 μCi/ml 33P-γ-ATP und 12.5 μM ATP
KDR enzyme solution: 3.5 μg/ml in kinase buffer
Wash solution: PBS (without Mg^2+, Ca^2+)
10 μl diluted klainetin solution
20 μl of enzyme solution (3.5 μg/ml; 70 ng/well)
20 μl of ATP solution (final concentration 0.5 μCi and 5 μM ATP/well)
Incubation at room temperature for 1 h, followed by washing 3× with 75 μl of wash solution and measurement in MicroBeta Counter (Wallac) for 30 sec.
(§2) The activity of the kinases (CDK4 or KDR) was meaured by incorporation of radioactive phosphate from ATP into the substrate and the inhibitory action of the klainetins (IC50) was calculated.

[3] = target: Cyclin D1/CDK4 (Homo sapiens, UniProt P11802); assay: CDK4 kinase inhibition, FlashPlate phosphorylation of peptide substrate; type: biochemical; conditions: purified enzyme, 2 μM ATP, room temperature
Protocol: as §1
Description of CDK4 reaction mixture:
Kinase buffer: 50 mM HEPES, 10 mM MgCl2, 2.5 mM EGTA pH8.0, 10 mM β-glycerol phosphate, 1 mM orthovanadate, 1 mM sodium fluoride, and 1 mM DTT
Biotinylated peptide substrate for FlashPlate coating (1 mg/ml solution in PBS buffer)
ATP solution: 100 μCi/ml 33P-γ-ATP and 10 μM ATP
Cyclin D1/CDK4 enzyme solution: 100 mg/ml in kinase buffer
Wash solution: 3% phosphoric acid
30 μl of diluted klainetin solution, 20 μl of ATP/enzyme solution (final conc. 1 μCi 33P-γ-ATP, 2 μM ATP and 1 μg of enzyme) […]
as §2

[4] = Solubility (characterization); type: physicochemical
[5] = target: CDK2 (Homo sapiens, UniProt P24941); assay: CDK2 kinase inhibition (IC50); type: biochemical; conditions: purified enzyme

Chain of KDR (P35968 20-1356, species assumed): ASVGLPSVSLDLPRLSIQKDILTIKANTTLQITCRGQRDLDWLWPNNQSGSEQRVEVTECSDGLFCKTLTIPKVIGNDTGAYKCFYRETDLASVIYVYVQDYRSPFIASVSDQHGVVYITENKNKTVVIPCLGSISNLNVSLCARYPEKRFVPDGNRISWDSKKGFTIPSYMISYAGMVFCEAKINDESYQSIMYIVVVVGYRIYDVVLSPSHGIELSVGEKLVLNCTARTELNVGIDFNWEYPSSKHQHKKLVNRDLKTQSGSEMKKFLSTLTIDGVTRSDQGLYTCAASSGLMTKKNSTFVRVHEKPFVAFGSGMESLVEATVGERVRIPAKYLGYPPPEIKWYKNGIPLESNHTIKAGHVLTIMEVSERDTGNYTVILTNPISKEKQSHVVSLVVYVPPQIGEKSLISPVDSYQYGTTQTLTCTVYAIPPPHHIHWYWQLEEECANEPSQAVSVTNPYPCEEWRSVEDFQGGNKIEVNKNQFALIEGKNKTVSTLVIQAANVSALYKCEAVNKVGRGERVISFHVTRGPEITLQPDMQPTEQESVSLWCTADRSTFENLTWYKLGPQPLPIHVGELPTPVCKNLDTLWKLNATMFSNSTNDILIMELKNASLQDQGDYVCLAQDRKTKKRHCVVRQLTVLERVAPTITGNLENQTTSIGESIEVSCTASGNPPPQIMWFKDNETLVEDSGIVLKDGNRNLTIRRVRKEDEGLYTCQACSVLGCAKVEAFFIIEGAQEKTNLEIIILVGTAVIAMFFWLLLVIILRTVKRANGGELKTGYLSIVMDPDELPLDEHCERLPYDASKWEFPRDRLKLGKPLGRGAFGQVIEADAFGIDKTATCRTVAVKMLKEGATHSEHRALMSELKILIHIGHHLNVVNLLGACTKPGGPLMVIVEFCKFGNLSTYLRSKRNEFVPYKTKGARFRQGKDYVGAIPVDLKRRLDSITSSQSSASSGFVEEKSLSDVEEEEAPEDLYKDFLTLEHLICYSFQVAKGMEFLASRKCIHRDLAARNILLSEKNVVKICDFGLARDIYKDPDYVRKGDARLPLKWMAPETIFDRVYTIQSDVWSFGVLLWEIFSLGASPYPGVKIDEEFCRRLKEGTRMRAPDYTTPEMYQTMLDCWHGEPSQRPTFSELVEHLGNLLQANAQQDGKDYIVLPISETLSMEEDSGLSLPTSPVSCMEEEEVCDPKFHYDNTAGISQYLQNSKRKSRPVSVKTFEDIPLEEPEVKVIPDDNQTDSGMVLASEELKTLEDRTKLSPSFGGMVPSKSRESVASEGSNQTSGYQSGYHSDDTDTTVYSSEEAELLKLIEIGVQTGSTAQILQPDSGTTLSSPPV
Chain of Cyclin D1/CDK4 (P11802 whole entry, species assumed): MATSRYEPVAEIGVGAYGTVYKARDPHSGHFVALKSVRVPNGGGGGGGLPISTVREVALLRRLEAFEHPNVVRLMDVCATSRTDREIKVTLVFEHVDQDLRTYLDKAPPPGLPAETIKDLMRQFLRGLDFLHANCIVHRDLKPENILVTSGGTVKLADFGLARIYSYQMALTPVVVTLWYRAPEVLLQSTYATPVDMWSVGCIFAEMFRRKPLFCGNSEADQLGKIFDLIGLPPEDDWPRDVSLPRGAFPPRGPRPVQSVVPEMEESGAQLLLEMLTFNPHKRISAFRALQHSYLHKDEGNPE
Chain of Cyclin D1/CDK4 (P24385 whole entry partner, species assumed): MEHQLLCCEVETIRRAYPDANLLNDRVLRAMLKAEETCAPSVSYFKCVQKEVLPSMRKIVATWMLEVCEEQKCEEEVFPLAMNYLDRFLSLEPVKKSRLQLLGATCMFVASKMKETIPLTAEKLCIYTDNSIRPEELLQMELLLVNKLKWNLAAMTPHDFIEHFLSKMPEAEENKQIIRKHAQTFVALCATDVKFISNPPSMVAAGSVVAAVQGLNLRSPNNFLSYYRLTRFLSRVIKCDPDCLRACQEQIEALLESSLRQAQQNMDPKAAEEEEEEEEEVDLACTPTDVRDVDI

Row | stability in the alkaline and strongly acidic range ([1]; alkaline and strongly acidic range) | stability in a neutral and mildly acidic environment [1] | IC50 [2] [µM] | IC50 [3] [nM] | solubility in polar organic solvents [4] | solubility in water [4] | IC50 [5] [µM] | stability in the alkaline range ([1]; alkaline range) | SMILES
1 | unstable | stable | 6.96 | 2090 | soluble | only slightly soluble | 21.5 | – | COc1c(Cc2cccc(O)c2O)c(O)cc2c1C(=O)CC(c1ccccc1)O2 (centres unmarked) [Klainetin A, klainetin A]
2 | – | stable | 6.48 | 1140 | soluble | only slightly soluble | 6.04 | unstable | COc1cc(O)c(Cc2cccc(O)c2O)c(O)c1C(=O)/C=C/c1ccccc1 [Klainetin B, klainetin B]
